Experimental findings from article PMC7949139, “The molecular basis of OH-PCB estrogen receptor activation” (The Journal of Biological Chemistry, 2021) are described below.

Positions count from the first letter of the chain named. Read-outs that look alike come from different tables or passages of the source.

The target in one assay is T1, WT SULT1E1 (Homo sapiens, UniProt P49888).
T1 construct: E. coli codon-optimized SULT1E1 coding region inserted into the PreScission Protease cleavage site; His/GST/MBP triple tag (N, cleaved yes); made in house; host or cells: E. coli BL21(DE3)
T1 sequence (P49888 1-294): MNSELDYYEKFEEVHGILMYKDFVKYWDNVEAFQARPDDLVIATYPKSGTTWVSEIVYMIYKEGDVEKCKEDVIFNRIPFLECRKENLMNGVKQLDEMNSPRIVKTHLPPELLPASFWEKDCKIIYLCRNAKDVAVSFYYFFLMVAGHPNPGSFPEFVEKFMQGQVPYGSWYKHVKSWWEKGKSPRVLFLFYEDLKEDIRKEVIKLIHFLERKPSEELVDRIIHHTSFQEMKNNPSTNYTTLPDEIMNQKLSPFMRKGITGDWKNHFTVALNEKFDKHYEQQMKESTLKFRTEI
Kind of assay: Initial-rate studies (1-HP sulfonation; OH-PCB inhibition), WT enzyme. It is filed as biochemical. As to the method: (§1) C. Reaction progress was monitored via the fluorescence change associated with 1-HP sulfonation (λex = 325 nm, λem = 370 nm ([51], [52])). Initial rates were measured during conversion to product of ≤5% of the concentration-limiting substrate consumed at the reaction endpoint. Velocities were determined in triplicate. Km and kcat were obtained by (1/v^4)-weighted least-squares fitting of the averaged data in double-reciprocal space (i.e., 1/v versus 1/[S]) ([66], [67]).
(§2) Inhibition studies were performed as described above except: 1-HP was fixed (2.0 μM, 100 × Km), OH-PCBs were added (0.20–20 × Ki), and SULT1E1 was 0.20 nM (active sites). Ki was determined by least-squares fitting to a noncompetitive inhibition model ([66], [67]).

A further assay deals with T2, SULT1E1 F75A (Homo sapiens, UniProt P49888, F75A).
T2 construct: E. coli codon-optimized SULT1E1 coding region inserted into the PreScission Protease cleavage site; His/GST/MBP triple tag (N, cleaved yes); made in house; host or cells: E. coli BL21(DE3)
T2 sequence (P49888 1-294 F75A): T1 sequence (P49888 1-294) with F75A
The assay is described as follows: Initial-rate studies (1-HP sulfonation; OH-PCB1 inhibition), F75A mutant. It is filed as biochemical. As for the experimental part: as §1, §2

The next assay concerns the target T3, SULT1E1 Y239A (Homo sapiens, UniProt P49888, Y239A).
T3 construct: E. coli codon-optimized SULT1E1 coding region inserted into the PreScission Protease cleavage site; His/GST/MBP triple tag (N, cleaved yes); made in house; host or cells: E. coli BL21(DE3)
T3 sequence (P49888 1-294 Y239A): T1 sequence (P49888 1-294) with Y239A
The assay is described as follows: Initial-rate studies (1-HP sulfonation; OH-PCB1 inhibition), Y239A mutant. The assay is classed as biochemical. As to the method: as §1, §2

A further assay has as its target T4, SULT1E1 (Homo sapiens, UniProt P49888).
T4 construct: E. coli codon-optimized SULT1E1 coding region inserted into the PreScission Protease cleavage site; His/GST/MBP triple tag (N, cleaved yes); made in house; host or cells: E. coli BL21(DE3)
T4 sequence (P49888 1-294): T1 sequence (P49888 1-294)
Kind of assay: Equilibrium binding studies (SULT1E1 intrinsic fluorescence). The settings on record: for Kd: pH 7.4, 25 °C, spread = one SD. As to the method: The binding of inhibitors to WT and mutant SULT1E1 was monitored via ligand-induced changes in the intrinsic fluorescence of the enzyme (λex= 290 nm, λem= 340 nm) ([4]). […] C. Titrations were performed in triplicate and the averaged data were least-squares fit to the following quadratic, single-site binding model: Io − ΔI∙(([L]+Etot + Kd) − [([L]+Etot + Kd)^2 − (4∙[L]∙Etot)]^1/2)/2∙Etot, where Io and ΔI represent fluorescent intensity at zero and infinite [L].

Assay [1] deals with estrogen receptor (ER) activation in (-) SULT1E1 control Ishikawa cells. The assay is described as follows: Estrogen receptor activation (alkaline phosphatase activity), control strain. It is filed as cell-based. The note with it: Homo sapiens, Control cell line, OH-PCB titration at 10 nM E2 (footnote a), NE = No Effect, read-out: Ligand EC50, ER activation. As to the method:
pcDNA 3.1 constructs harboring either the SULT1E1 WT or double mutant (F75A/F80A) coding regions were generated using Gibson Assembly ([74]). The vectors were linearized using BGIII. Ishikawa cells were grown at 37 °C ± 2 deg. C in growth medium (MEM media containing 10% v/v FBS). At confluence, the cells were washed (3×) with PBS media before coating with an Opti-MEM solution containing a linearized construct (50 ng μg^−1) and lipofectamine (2.5 units ml^−1). After 24 h at 37 °C ± 2 deg. C, cells were washed (3×) with PBS before adding growth medium containing neomycin (400 μg ml^−1) to select transfectants. Selective growth medium was replenished every 48 h until single colonies could be isolated (∼3–6 weeks). Single colonies were transferred using trypsin digest (0.05%) to 12-well plates and grown at 37 °C ± 2 deg. C to confluence for further experimentation and storage.
Transfected Ishikawa cells were grown at 37 °C ± 2 deg. C to 60 to 70% confluency in MEM containing 10% v/v FBS. Cells were then transferred to 96-well tissue culture plates and grown at 37 °C ± 2 deg. C to 80% confluency in MEM containing 10% v/v charcoal filtered FBS. The plate was then washed with PBS and grown at 37 °C ± 2 deg. C for 24 h in MEM without FBS. Estradiol (0–3.0 μM) and OH-PCB (0–1.0 μM) solubilized in neat DMSO were added and cells were incubated at 37 °C ± 2 deg. C for 5 days. The final concentrations of DMSO were ≤0.10%. Cells were then washed twice with PBS before adding pNpp (5.0 mM) in PBS ([75]). Following incubation with pNpp for 3 h at 25 °C ± 2 deg. C, wells were read at 405 nm using a Synergy HT BioTek Plate Reader.

Where [2] appears, read: noncompetitive inhibition model, parentheses = one SD.

`Oc1ccc(-c2c(Cl)cccc2Cl)cc1` [OH-PCB1, 4ʹ-OH-2,6-dichlorobiphenol]: the “Fold Effect = Ki OH-PCB1/Ki OH-PCB1 WT” value was 1.0 on WT SULT1E1 (WT), 11 at SULT1E1 F75A and 5.7 on SULT1E1 Y239A. The inhibition constant (Ki) (usually the equilibrium dissociation constant of an inhibitor or competing ligand from its target) at WT SULT1E1 (WT SULT1E1, Table 1, parentheses = one SD, read-out: Ki OH-PCB1) was found to be 60 nM; at SULT1E1 F75A (setting [2]) it was 630 nM; at SULT1E1 Y239A (setting [2]), 340 nM. Further, the dissociation constant (Kd) (commonly the constant that tells how readily two partners part at equilibrium) came to 62 nM on SULT1E1 (E2 4.0 μM (higher partner concentration), PAP 300 μM, read-out: Kd, ligand binding to enzyme species E⋅PAP⋅E2); 66 nM at SULT1E1 (E2 4.0 μM, no PAP, read-out: Kd, ligand binding to enzyme species E⋅E2); 780 nM on SULT1E1 (PAP 300 μM, read-out: Kd, ligand binding to enzyme species E⋅PAP); 750 nM on SULT1E1 (free enzyme E, read-out: Kd, ligand binding to enzyme species E). Also, the “fold tighter binding in the presence of the partner ligand (OH-PCB1/E2 interaction)” value at SULT1E1 (OH-PCB1: E⋅E2 versus E, E2: E⋅PAP⋅OH-PCB1 versus E⋅PAP) is ~12 fold. Besides, in assay [1], the concentration for a half-maximal effect (EC50) (usually the midpoint of the concentration-response curve) is > 1000 nM.
